Data published in PubChem BioAssay AID1259407 (Chemical Carcinogenesis Research Information System (CCRIS), 2018).
Active and inactive are the calls of the source. How the calls were made is not given here.

Test system: CCRIS mutagenicity, Ames/micronucleus/aberration tests
Experiment: CCRIS mutagenicity studies

With NC(CNCCCC[C@H](N)C(=O)O)C(=O)O (stereo partly specified) the mutagenic call (Test System: AMES SALMONELLA TYPHIMURIUM, Strain/Indicator: TA97, Metabolic Activation: NONE, Method: PREINCUBATION) was “inactive; negative”, the mutagenic call (Test System: AMES SALMONELLA TYPHIMURIUM, Strain/Indicator: TA97, Metabolic Activation: RAT, KIDNEY, S-9, AROCLOR 1254, Method: PREINCUBATION) was “inactive; negative” and the mutagenic call (Test System: AMES SALMONELLA TYPHIMURIUM, Strain/Indicator: TA97, Metabolic Activation: RAT, LIVER, S-9, AROCLOR 1254, Method: PREINCUBATION) was “inactive; negative”. The mutagenic call (Test System: AMES SALMONELLA TYPHIMURIUM, Strain/Indicator: TA98, Metabolic Activation: NONE, Method: PREINCUBATION) was “inactive; negative”, the mutagenic call (Test System: AMES SALMONELLA TYPHIMURIUM, Strain/Indicator: TA98, Metabolic Activation: RAT, KIDNEY, S-9, AROCLOR 1254, Method: PREINCUBATION) was “inactive; negative” and the mutagenic call (Test System: AMES SALMONELLA TYPHIMURIUM, Strain/Indicator: TA98, Metabolic Activation: RAT, LIVER, S-9, AROCLOR 1254, Method: PREINCUBATION) was “inactive; negative”. The mutagenic call (Test System: AMES SALMONELLA TYPHIMURIUM, Strain/Indicator: TA100, Metabolic Activation: NONE, Method: PREINCUBATION) was “inactive; negative”, the mutagenic call (Test System: AMES SALMONELLA TYPHIMURIUM, Strain/Indicator: TA100, Metabolic Activation: RAT, KIDNEY, S-9, AROCLOR 1254, Method: PREINCUBATION) was “inactive; negative” and the mutagenic call (Test System: AMES SALMONELLA TYPHIMURIUM, Strain/Indicator: TA100, Metabolic Activation: RAT, LIVER, S-9, AROCLOR 1254, Method: PREINCUBATION) was “inactive; negative”. The mutagenic call (Test System: AMES SALMONELLA TYPHIMURIUM, Strain/Indicator: TA102, Metabolic Activation: NONE, Method: PREINCUBATION) was “inactive; negative”, the mutagenic call (Test System: AMES SALMONELLA TYPHIMURIUM, Strain/Indicator: TA102, Metabolic Activation: RAT, KIDNEY, S-9, AROCLOR 1254, Method: PREINCUBATION) was “inactive; negative” and the mutagenic call (Test System: AMES SALMONELLA TYPHIMURIUM, Strain/Indicator: TA102, Metabolic Activation: RAT, LIVER, S-9, AROCLOR 1254, Method: PREINCUBATION) was “inactive; negative”.
In the case of Cc1ccc(N(CCO)CCO)cc1, the mutagenic call (Test System: AMES SALMONELLA TYPHIMURIUM, Strain/Indicator: TA1535, Metabolic Activation: RAT, LIVER, S-9, AROCLOR 1254 (2.5%), Method: PREINCUBATION) is reported as “active; positive”, the mutagenic call (Test System: Mouse lymphoma, Strain/Indicator: L5178Y (tk+/tk-), Metabolic Activation: None, Method: Suspension/plate) is reported as “inactive; negative” and the mutagenic call (Test System: Mouse lymphoma, Strain/Indicator: L5178Y (tk+/tk-), Metabolic Activation: Rat, Liver, S-9, Aroclor 1254, Method: Suspension/plate) is reported as “inconclusive (previous evaluation equivocal)”.
In the case of COC[C@@H]1C=C2c3cccc4c3c(cn4C)C[C@H]2N(C)C1, the mutagenic call (Test System: AMES SALMONELLA TYPHIMURIUM, Strain/Indicator: TA100, Metabolic Activation: RAT, LIVER, S-9, AROCLOR 1254, Method: STANDARD PLATE) is reported as “active; positive”.
